Assay results published in US20170190671A1, “BIS(ARYL)CATECHOL DERIVATIVES AS HERBICIDES” (E I DU PONT DE NEMOURS AND COMPANY, priority 2014, published 2017).

Tests used:
Format in all cases: in vivo
[1] = system: sedge, umbrella (small-flower umbrella sedge, Cyperus difformis); assay: Test B flooded paddy; settings: Cyperus difformis, 336 h; 250 g ai/ha, Flood, 13 to 15 days, scale 0 (no effect) to 100 (complete control); read-out: Plant response rating, Sedge, Umbrella
Method in brief: (§1)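 Greenhouse pots flooded to 3 cm above soil at time of treatment received compound via the water, which stayed at that level.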

[2] = system: rice (Oryza sativa); assay: Test B flooded paddy; settings: Oryza sativa, 336 h; 250 g ai/ha, Flood, 13 to 15 days, scale 0 (no effect) to 100 (complete control); read-out: Plant response rating, Rice
Method in brief: as §1

[3] = system: barnyardgrass (Echinochloa crus-galli); assay: Test B flooded paddy; settings: Echinochloa crus-galli, 336 h; 250 g ai/ha, Flood, 13 to 15 days, scale 0 (no effect) to 100 (complete control); read-out: Plant response rating, Barnyardgrass
Method in brief: as §1

[4] = system: ducksalad (Heteranthera limosa); assay: Test B flooded paddy; settings: Heteranthera limosa, 336 h; 250 g ai/ha, Flood, 13 to 15 days, scale 0 (no effect) to 100 (complete control); read-out: Plant response rating, Ducksalad
Method in brief: as §1

[5] = system: ragweed (common ragweed, Ambrosia elatior); assay: Test A postemergence; settings: Ambrosia artemisiifolia, post-emergence, 240 h, 1000 g ai/ha, 0 to 100 scale, read-out: Plant response rating, Ragweed
Method in brief: (§2)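 Injury scores run from 0, no effect, to 100, complete control, judged by eye against untreated plants roughly 10 days after treatment. Chemicals carried a surfactant in a non-phytotoxic solvent and went onto loam–sand soil preemergence or onto one- to two-leaf seedlings postemergence.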

[6] = system: galium (catchweed bedstraw, Galium aparine); assay: Test A postemergence; settings: Galium, post-emergence, 240 h, 1000 g ai/ha, 0 to 100 scale, read-out: Plant response rating, Galium
Method in brief: as §2

[7] = system: wheat (Triticum aestivum); assay: Test A postemergence; settings: Triticum aestivum, post-emergence, 240 h, 1000 g ai/ha, 0 to 100 scale, read-out: Plant response rating, Wheat
Method in brief: as §2

[8] = system: corn (Zea mays); assay: Test A postemergence; settings: Zea mays, post-emergence, 240 h, 1000 g ai/ha, 0 to 100 scale
Method in brief: as §2

[9] = system: giant foxtail (Setaria faberii); assay: Test A postemergence; settings: Setaria faberi, post-emergence, 240 h, 1000 g ai/ha, 0 to 100 scale, read-out: Plant response rating, Foxtail, Giant
Method in brief: as §2

[10] = system: kochia (Kochia scoparia); assay: Test A postemergence; settings: Bassia scoparia, post-emergence, 240 h, 1000 g ai/ha, 0 to 100 scale, read-out: Plant response rating, Kochia
Method in brief: as §2

[11] = system: barnyardgrass (Echinochloa crus-galli); assay: Test A postemergence; settings: Echinochloa crus-galli, post-emergence, 240 h, 1000 g ai/ha, 0 to 100 scale, 0 no effect, 100 complete control, read-out: Plant response rating, Barnyardgrass
Method in brief: as §2

[12] = system: pigweed (Amaranthus retroflexus); assay: Test A postemergence; settings: Amaranthus retroflexus, post-emergence, 240 h, 1000 g ai/ha, 0 to 100 scale, read-out: Plant response rating, Pigweed
Method in brief: as §2

[13] = system: blackgrass (Alopecurus myosuroides); assay: Test A postemergence; settings: Alopecurus myosuroides, post-emergence, 240 h, 1000 g ai/ha, 0 to 100 scale, read-out: Plant response rating, Blackgrass
Method in brief: as §2

[14] = system: Italian ryegrass (Lolium multiflorum); assay: Test A postemergence; settings: Lolium multiflorum, post-emergence, 240 h, 1000 g ai/ha, 0 to 100 scale, read-out: Plant response rating, Ryegrass, Italian
Method in brief: as §2

[15] = system: morningglory (Ipomoea coccinea); assay: Test C postemergence; settings: Ipomoea, post-emergence, 336 h, Postemergence, scale 0 to 100, read-out: Plant response rating, Morningglory; for pest or weed control at 31 g/ha: 31 g ai/ha; for pest or weed control at 62 g/ha: 62 g ai/ha; for pest or weed control at 125 g/ha: 125 g ai/ha; for pest or weed control at 250 g/ha: 250 g ai/ha
Method in brief: (§3)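 Visual ratings were made 13-15 days after treatment in the greenhouse, scored 0-100 against controls, where 100 means complete control. Treatments used a surfactant-containing non-phytotoxic solvent formulation, applied preemergence to seeds in loam-sand soil or postemergence to 2-18 cm plants (1-4 leaves) in peat-based medium.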

[16] = system: galium (catchweed bedstraw, Galium aparine); assay: Test C postemergence; settings: Galium, post-emergence, 336 h, Postemergence, scale 0 to 100, read-out: Plant response rating, Galium; for pest or weed control at 31 g/ha: 31 g ai/ha; for pest or weed control at 62 g/ha: 62 g ai/ha; for pest or weed control at 125 g/ha: 125 g ai/ha; for pest or weed control at 250 g/ha: 250 g ai/ha
Method in brief: as §3

[17] = system: giant foxtail (Setaria faberii); assay: Test C postemergence; settings: Setaria faberi, post-emergence, 336 h, Postemergence, scale 0 to 100, read-out: Plant response rating, Foxtail, Giant; for pest or weed control at 31 g/ha: 31 g ai/ha; for pest or weed control at 62 g/ha: 62 g ai/ha; for pest or weed control at 125 g/ha: 125 g ai/ha; for pest or weed control at 250 g/ha: 250 g ai/ha
Method in brief: as §3

[18] = system: ragweed (common ragweed, Ambrosia elatior); assay: Test A preemergence; settings: Ambrosia artemisiifolia, pre-emergence, 240 h, 1000 g ai/ha, 0 to 100 scale, read-out: Plant response rating, Ragweed
Method in brief: as §2

[19] = system: giant foxtail (Setaria faberii); assay: Test A preemergence; settings: Setaria faberi, pre-emergence, 240 h, 1000 g ai/ha, 0 to 100 scale, read-out: Plant response rating, Foxtail, Giant
Method in brief: as §2

[20] = system: kochia (Kochia scoparia); assay: Test A preemergence; settings: Bassia scoparia, pre-emergence, 240 h, 1000 g ai/ha, 0 to 100 scale, read-out: Plant response rating, Kochia
Method in brief: as §2

[21] = system: barnyardgrass (Echinochloa crus-galli); assay: Test A preemergence; settings: Echinochloa crus-galli, pre-emergence, 240 h, 1000 g ai/ha, 0 to 100 scale, read-out: Plant response rating, Barnyardgrass
Method in brief: as §2

[22] = system: pigweed (Amaranthus retroflexus); assay: Test A preemergence; settings: Amaranthus retroflexus, pre-emergence, 240 h, 1000 g ai/ha, 0 to 100 scale, read-out: Plant response rating, Pigweed
Method in brief: as §2

[23] = system: Italian ryegrass (Lolium multiflorum); assay: Test A preemergence; settings: Lolium multiflorum, pre-emergence, 240 h, 1000 g ai/ha, 0 to 100 scale, read-out: Plant response rating, Ryegrass, Italian
Method in brief: as §2

| SMILES | pest or weed control at 250 g/ha [1] [%] | plant injury at 250 g/ha [2] [%] | pest or weed control at 250 g/ha [3] [%] | pest or weed control at 250 g/ha [4] [%] | pest or weed control at 1000 g/ha [5] [%] | pest or weed control at 1000 g/ha [6] [%] | plant injury at 1000 g/ha [7] [%] | Corn plant response rating (crop injury, 0 = no effect, 100 = complete kill) at 1000 g/ha [8] [%] | pest or weed control at 1000 g/ha [9] [%] | pest or weed control at 1000 g/ha [10] [%] | pest or weed control at 1000 g/ha [11] [%] | pest or weed control at 1000 g/ha [12] [%] | pest or weed control at 1000 g/ha [13] [%] | pest or weed control at 1000 g/ha [14] [%] | pest or weed control at 31 g/ha [15] [%] | pest or weed control at 62 g/ha [15] [%] | pest or weed control at 125 g/ha [15] [%] | pest or weed control at 250 g/ha [15] [%] | pest or weed control at 31 g/ha [16] [%] | pest or weed control at 62 g/ha [16] [%] | also measured |
| --- | --- | --- | --- | --- | --- | --- | --- | --- | --- | --- | --- | --- | --- | --- | --- | --- | --- | --- | --- | --- | --- |
| Fc1cccc(Oc2ncc(Cl)cn2)c1Oc1ccc(Cl)nc1 [Compound 20] | 90 | 15 | 20 | 95 | 60 | 90 | 50 | 50 | 90 | 90 | 90 | 100 | 60 | 40 | 30 | 60 | 65 | 65 | 50 | 50 | pest or weed control at 125 g/ha [16]: 70%; pest or weed control at 250 g/ha [16]: 95%; pest or weed control at 31 g/ha [17]: 15%; pest or weed control at 62 g/ha [17]: 20%; pest or weed control at 125 g/ha [17]: 15%; pest or weed control at 250 g/ha [17]: 15%; pest or weed control at 1000 g/ha [18]: 40%; pest or weed control at 1000 g/ha [19]: 100%; pest or weed control at 1000 g/ha [20]: 90%; pest or weed control at 1000 g/ha [21]: 100%; pest or weed control at 1000 g/ha [22]: 100%; pest or weed control at 1000 g/ha [23]: 70% |
| Fc1cnc(Oc2c(Br)cccc2Oc2ncc(Cl)cn2)nc1 [Compound 22] | 98 | 45 | 45 | 100 | 90 | 90 | 70 | 70 | 90 | 100 | 90 | 100 | 70 | 90 | 80 | 70 | 85 | 80 | 70 | 90 | pest or weed control at 125 g/ha [16]: 90%; pest or weed control at 250 g/ha [16]: 95%; pest or weed control at 31 g/ha [17]: 5%; pest or weed control at 62 g/ha [17]: 5%; pest or weed control at 125 g/ha [17]: 10%; pest or weed control at 250 g/ha [17]: 20%; pest or weed control at 1000 g/ha [18]: 90%; pest or weed control at 1000 g/ha [19]: 100%; pest or weed control at 1000 g/ha [20]: 100%; pest or weed control at 1000 g/ha [21]: 100%; pest or weed control at 1000 g/ha [22]: 100%; pest or weed control at 1000 g/ha [23]: 90% |
